Values joined by “and” are separate entries in the source; they are usually repeats but may differ in a detail not shown here. Identical values can stand only once. Inconclusive results and toxic doses are left out.
System: L1210 leukemia ip in BDF1 mice, survival T/C
Assay: NCI In Vivo Anticancer Drug Screen. Data for tumor model L1210 Leukemia (intraperitoneal) in B6D2F1 (BDF1) mice
Conditions: endpoint: mean survival time, higher = longer survival
In short: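 Mice bearing the transplanted tumor received compound or vehicle. Survival of the treated group was divided by that of the vehicle-treated control group to give the ratio.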

[1] = dose: 100.0 mg/kg/injection, schedule: Q01DX009 (ip), vehicle: Klucel (hydroxypropylcellulose) (HPC)
[2] = dose: 100.0 mg/kg/injection, schedule: Q01DX009 (ip), vehicle: saline
[3] = dose: 100.0 mg/kg/injection, schedule: Q04DX003 (ip), vehicle: Klucel (hydroxypropylcellulose) (HPC)
[4] = dose: 100.0 mg/kg/injection, schedule: Q04DX003 (ip), vehicle: saline
[5] = dose: 200.0 mg/kg/injection, schedule: Q01DX009 (ip), vehicle: Klucel (hydroxypropylcellulose) (HPC)
[6] = dose: 200.0 mg/kg/injection, schedule: Q01DX009 (ip), vehicle: saline
[7] = dose: 200.0 mg/kg/injection, schedule: Q04DX003 (ip), vehicle: Klucel (hydroxypropylcellulose) (HPC)
[8] = dose: 400.0 mg/kg/injection, schedule: Q01DX009 (ip), vehicle: Klucel (hydroxypropylcellulose) (HPC)
[9] = dose: 400.0 mg/kg/injection, schedule: Q01DX009 (ip), vehicle: saline
[10] = dose: 400.0 mg/kg/injection, schedule: Q04DX003 (ip), vehicle: Klucel (hydroxypropylcellulose) (HPC)
[11] = dose: 400.0 mg/kg/injection, schedule: Q04DX003 (ip), vehicle: saline
[12] = dose: 100.0 mg/kg/injection, schedule: Q04DX003 (ip), vehicle: saline with Tween-80
[13] = dose: 200.0 mg/kg/injection, schedule: Q04DX003 (ip), vehicle: saline with Tween-80
[14] = dose: 400.0 mg/kg/injection, schedule: Q04DX003 (ip), vehicle: saline with Tween-80
[15] = dose: 75.0 mg/kg/injection, schedule: Q01DX001 (ip), vehicle: saline
[16] = dose: 150.0 mg/kg/injection, schedule: Q01DX001 (ip), vehicle: saline
[17] = dose: 300.0 mg/kg/injection, schedule: Q01DX001 (ip), vehicle: saline
[18] = dose: 100.0 mg/kg/injection, schedule: Q01DX009 (ip), vehicle: saline with Tween-80
[19] = dose: 200.0 mg/kg/injection, schedule: Q01DX009 (ip), vehicle: saline with Tween-80
[20] = dose: 400.0 mg/kg/injection, schedule: Q01DX009 (ip), vehicle: saline with Tween-80
[21] = dose: 50.0 mg/kg/injection, schedule: Q01DX009 (ip), vehicle: Klucel (hydroxypropylcellulose) (HPC)

SMILES: Cc1ccc(NC(=O)c2ccccc2Cl)cc1Cl
- T/C (dose: 25.0 mg/kg/injection, schedule: Q04DX004 (ip), vehicle: Klucel (hydroxypropylcellulose) (HPC)): 89 % of control
- T/C (dose: 50.0 mg/kg/injection, schedule: Q04DX004 (ip), vehicle: Klucel (hydroxypropylcellulose) (HPC)): 98 % of control
- T/C [1]: 96 % of control
- T/C [2]: 110 % of control
- T/C [3]: 95 % of control
- T/C [4]: 120 % of control
- T/C (dose: 100.0 mg/kg/injection, schedule: Q04DX004 (ip), vehicle: Klucel (hydroxypropylcellulose) (HPC)): 88 % of control
- T/C (dose: 135.0 mg/kg/injection, schedule: Q04DX004 (ip), vehicle: Klucel (hydroxypropylcellulose) (HPC)): 96 % of control
- T/C [5]: 94 % of control
- T/C [6]: 102 % of control
- T/C [7]: 95 % of control
- T/C [8]: 98 % of control
- T/C [9]: 102 % of control
- T/C [10]: 96 % of control
- T/C [11]: 115 % of control

SMILES: O=C(/C(=N\N=C\c1c(O)ccc2ccccc12)c1ccccc1)c1ccccc1
- T/C [12]: 96 % of control
- T/C [13]: 98 % of control
- T/C [14]: 94 % of control

SMILES: N/C(Cc1ccc(Cl)cc1)=N/O
- T/C [3]: 104 % of control
- T/C [7]: 102 % of control

SMILES: CCN(CC)C(=O)N(CC)C(=O)CN(C)C
- T/C [4]: 102 % of control
- T/C (dose: 200.0 mg/kg/injection, schedule: Q04DX003 (ip), vehicle: saline): 102 % of control
- T/C [11]: 96 % of control

SMILES: C/C=C/c1nc2c([nH]1)c(=O)n(C)c(=O)n2C
- T/C (dose: 50.0 mg/kg/injection, schedule: Q01DX001 (ip), vehicle: saline): 107 % of control
- T/C (dose: 100.0 mg/kg/injection, schedule: Q01DX001 (ip), vehicle: saline): 107 % of control
- T/C (dose: 200.0 mg/kg/injection, schedule: Q01DX001 (ip), vehicle: saline): 104 % of control
- T/C (dose: 400.0 mg/kg/injection, schedule: Q01DX001 (ip), vehicle: saline): 98 % of control

SMILES: Clc1cc(N2CC2)nc(N2CC2)n1
- T/C (dose: 1.56 mg/kg/injection, schedule: Q01DX001 (ip), vehicle: saline): 92 % of control
- T/C (dose: 1.56 mg/kg/injection, schedule: Q04DX003 (ip), vehicle: saline): 110 % of control
- T/C (dose: 1.6 mg/kg/injection, schedule: Q01DX009 (ip), vehicle: carboxymethylcellulose (CMC)): 118 % of control
- T/C (dose: 2.14 mg/kg/injection, schedule: Q01DX009 (ip), vehicle: saline): 166 % of control and 184 % of control
- T/C (dose: 2.5 mg/kg/injection, schedule: Q01DX001 (ip), vehicle: carboxymethylcellulose (CMC)): 111 % of control
- T/C (dose: 2.7 mg/kg/injection, schedule: Q01DX009 (ip), vehicle: carboxymethylcellulose (CMC)): 120 % of control
- T/C (dose: 3.12 mg/kg/injection, schedule: Q01DX001 (ip), vehicle: saline): 93 % of control
- T/C (dose: 3.25 mg/kg/injection, schedule: Q01DX009 (ip), vehicle: saline with Tween-80): 185 % of control
- T/C (dose: 3.25 mg/kg/injection, schedule: Q01DX009 (ip), vehicle: saline): 177 % of control and 226 % of control
- T/C (dose: 4.12 mg/kg/injection, schedule: Q04DX003 (ip), vehicle: saline): 156 % of control
- T/C (dose: 4.44 mg/kg/injection, schedule: Q01DX001 (ip), vehicle: carboxymethylcellulose (CMC)): 115 % of control
- T/C (dose: 4.87 mg/kg/injection, schedule: Q01DX009 (ip), vehicle: saline): 103 % of control
- T/C (dose: 5.0 mg/kg/injection, schedule: Q01DX001 (ip), vehicle: carboxymethylcellulose (CMC)): 120 % of control
- T/C (dose: 5.0 mg/kg/injection, schedule: Q01DX001 (ip), vehicle: saline): 118 % of control
- T/C (dose: 6.25 mg/kg/injection, schedule: Q01DX001 (ip), vehicle: saline): 98 % of control
- T/C (dose: 6.25 mg/kg/injection, schedule: Q04DX003 (ip), vehicle: saline): 166 % of control and 173 % of control and 202 % of control
- T/C (dose: 6.67 mg/kg/injection, schedule: Q01DX001 (ip), vehicle: carboxymethylcellulose (CMC)): 121 % of control
- T/C (dose: 7.5 mg/kg/injection, schedule: Q01DX009 (ip), vehicle: carboxymethylcellulose (CMC)): 106 % of control
- T/C (dose: 10.0 mg/kg/injection, schedule: Q01DX001 (ip), vehicle: carboxymethylcellulose (CMC)): 154 % of control
- T/C (dose: 10.0 mg/kg/injection, schedule: Q01DX001 (ip), vehicle: saline): 156 % of control and 160 % of control
- T/C (dose: 15.0 mg/kg/injection, schedule: Q01DX001 (ip), vehicle: saline): 160 % of control
- T/C (dose: 20.0 mg/kg/injection, schedule: Q01DX001 (ip), vehicle: carboxymethylcellulose (CMC)): 104 % of control

SMILES: O=C1Cc2ccccc2C(C(=O)O)O1 (configuration not stated)
- T/C [15]: 107 % of control
- T/C [16]: 101 % of control
- T/C [17]: 107 % of control

SMILES: CCOC(=O)C1(C)OC1c1ccc2c(c1)OCO2 (configuration not stated)
- T/C [18]: 106 % of control
- T/C [19]: 95 % of control
- T/C [20]: 103 % of control

SMILES: N#CCCCN1CCCCCC1
- T/C (dose: 25.0 mg/kg/injection, schedule: Q01DX009 (ip), vehicle: saline): 98 % of control
- T/C (dose: 25.0 mg/kg/injection, schedule: Q04DX003 (ip), vehicle: saline): 101 % of control
- T/C (dose: 50.0 mg/kg/injection, schedule: Q01DX009 (ip), vehicle: saline): 93 % of control
- T/C (dose: 50.0 mg/kg/injection, schedule: Q04DX003 (ip), vehicle: saline): 101 % of control
- T/C [4]: 101 % of control

SMILES: COc1ccc(OC)c(CC(Cl)(C#N)C#N)c1
- T/C (dose: 12.0 mg/kg/injection, schedule: Q01DX009 (ip), vehicle: Klucel (hydroxypropylcellulose) (HPC)): 100 % of control
- T/C (dose: 25.0 mg/kg/injection, schedule: Q01DX009 (ip), vehicle: Klucel (hydroxypropylcellulose) (HPC)): 102 % of control
- T/C [21]: 102 % of control
- T/C [7]: 105 % of control

SMILES: CCCCCCCCCCCCCCCCOc1ccccn1
- T/C [1]: 96 % of control
- T/C [3]: 92 % of control
- T/C [5]: 96 % of control
- T/C [7]: 95 % of control
- T/C [8]: 98 % of control
- T/C [10]: 90 % of control

SMILES: O=C1c2c(c(O)c3ccccc3c2O)C(=O)C2CC=CCC12 (configuration not stated)
- T/C (dose: 25.0 mg/kg/injection, schedule: Q01DX009 (ip), vehicle: saline with Tween-80): 105 % of control
- T/C (dose: 50.0 mg/kg/injection, schedule: Q01DX009 (ip), vehicle: saline with Tween-80): 110 % of control
- T/C [18]: 104 % of control
- T/C [19]: 104 % of control
- T/C [20]: 104 % of control

SMILES: O=C1CCC(=O)N1O
- T/C (dose: 50.0 mg/kg/injection, schedule: Q01DX Z (ip), vehicle: saline): 94 % of control
- T/C [2]: 93 % of control
- T/C (dose: 100.0 mg/kg/injection, schedule: Q01DX Z (ip), vehicle: saline): 93 % of control
- T/C [6]: 90 % of control
- T/C (dose: 200.0 mg/kg/injection, schedule: Q01DX Z (ip), vehicle: saline): 96 % of control
- T/C [9]: 92 % of control
- T/C (dose: 400.0 mg/kg/injection, schedule: Q01DX Z (ip), vehicle: saline): 93 % of control

SMILES: C[n+]1cccc(C=O)c1
- T/C [2]: 100 % of control
- T/C [6]: 101 % of control
- T/C [9]: 100 % of control

SMILES: COC(=O)c1ccccc1SSc1ccccc1C(=O)OC
- T/C [12]: 95 % of control
- T/C [13]: 102 % of control
- T/C [14]: 102 % of control

SMILES: COc1ccc(C)cc1NC(=S)NC(=O)c1cccc2ccccc12
- T/C [21]: 93 % of control
- T/C [1]: 87 % of control
- T/C [3]: 95 % of control
- T/C [5]: 88 % of control
- T/C [7]: 94 % of control
- T/C (dose: 300.0 mg/kg/injection, schedule: Q01DX009 (ip), vehicle: Klucel (hydroxypropylcellulose) (HPC)): 104 % of control and 87 % of control

SMILES: CCOC(=O)c1c[nH]c2c(ccc3cc(OC)ccc32)c1=O
- T/C [21]: 101 % of control
- T/C [1]: 97 % of control
- T/C [5]: 97 % of control

SMILES: CC(C)(CO)NCc1ccccc1F
- T/C [15]: 103 % of control
- T/C [16]: 104 % of control
- T/C [17]: 98 % of control

SMILES: O=C1C(Br)(Br)CCCCC1(c1ccccc1)c1ccccc1
- T/C [12]: 101 % of control
- T/C [13]: 103 % of control
- T/C [14]: 87 % of control

SMILES: Cc1ccc(C)c(NC(=O)Nc2cccc(Cl)c2)c1
- T/C [1]: 93 % of control
- T/C [3]: 92 % of control
- T/C [5]: 96 % of control
- T/C [7]: 89 % of control
- T/C [8]: 91 % of control
- T/C [10]: 87 % of control

SMILES: Cc1ccc(S(=O)(=O)c2ccc(F)cc2)cc1
- T/C [12]: 104 % of control
- T/C [13]: 95 % of control
- T/C [14]: 97 % of control
